{
  "source": "patent US20040102454A1",
  "about": "“Phenylahistin and the phenylahistin analogs, a new class of anti-tumor compounds” (priority 1998, published 2004)",
  "key": {"[1]": {"tested_on": "Microtubule protein from bovine brain", "experiment": "Microtubule protein polymerization assay (turbidity)", "format": "biochemical"}, "[2]": {"tested_on": "A549 cells (human lung carcinoma)", "experiment": "A549 proliferation, Alamar Blue assay", "format": "cell-based", "method": "Exponentially growing A549 cells were seeded into 96-well tissue culture plates (2×10^3 cells/100 μl/well) and cultured for 16 hours. (−)-PLH or CLC was then added to each well at various concentrations, and the cells were cultured for an additional 48 hours. Live cells were counted using Alamar Blue™ from BioSource International (Camarillo, Calif.) as described in Ahmed, S. A., J. Immunol. Methods, (1994), 170, 211-24."}, "BSY-1": {"tested_on": "BSY-1", "experiment": "HCC panel assay, sulforhodamine B", "format": "cell-based", "details": "BSY-1, Breast, (−)-PLH content 24.1%", "method": "(§1) The antitumor activity of PLH was evaluated by the Human Cancer Cell Line Panel (HCC panel) assay, see Yamori T., Jap. J Cancer Chemother., (1997), 24, 129-35. This HCC panel consists of 38 tumor cell lines including 7 lung cancer, 6 stomach, 6 colon, 5 ovary, 6 central nerve system, 5 breast, 2 kidney and 1 melanoma cell lines. Each tumor cell was seeded in 96-well tissue culture plates and incubated overnight. Various concentrations (5 doses; final 10^−4, 10^−5, 10^−6, 10^−7 and 10^−8 M) of PLH were added, and the cells were incubated for 48 hours. […] All mice were obtained from Japan SLC (Shizuoka, Japan), P388 leukemia cells were obtained from Dainippon Pharmaceuticals Inc. (Osaka, Japan), Lewis Lung Carcinoma from Riken Cell Bank (Tsukuba, Japan), and Colon 26 cells from the National Cancer Center, Japan (Tokyo, Japan)."}, "OVCAR-3": {"tested_on": "OVCAR-3", "experiment": "HCC panel assay, sulforhodamine B", "format": "cell-based", "method": "as §1"}, "MDA-MB-231": {"tested_on": "MDA-MB-231", "experiment": "HCC panel assay, sulforhodamine B", "format": "cell-based", "details": "MDA-MB-231, Breast, (−)-PLH content 24.1%", "method": "as §1"}, "MKN7": {"tested_on": "MKN7", "experiment": "HCC panel assay, sulforhodamine B", "format": "cell-based", "details": "MKN7, Stomach, (−)-PLH content 24.1%", "method": "as §1"}, "HT-29": {"tested_on": "HT-29", "experiment": "HCC panel assay, sulforhodamine B", "format": "cell-based", "details": "HT-29, Colon, (−)-PLH content 24.1%", "method": "as §1"}, "SK-OV-3": {"tested_on": "SK-OV-3", "experiment": "HCC panel assay, sulforhodamine B", "format": "cell-based", "details": "SK-OV-3, Ovary, (−)-PLH content 24.1%", "method": "as §1"}, "A549": {"tested_on": "A549", "experiment": "HCC panel assay, sulforhodamine B", "format": "cell-based", "details": "A549, Lung, (−)-PLH content 24.1%", "method": "as §1"}, "OVCAR-8": {"tested_on": "OVCAR-8", "experiment": "HCC panel assay, sulforhodamine B", "format": "cell-based", "details": "OVCAR-8, Ovary, (−)-PLH content 24.1%", "method": "as §1"}, "HBC-5": {"tested_on": "HBC-5", "experiment": "HCC panel assay, sulforhodamine B", "format": "cell-based", "details": "HBC-5, Breast, (−)-PLH content 24.1%", "method": "as §1"}, "NCI-H460": {"tested_on": "NCI-H460", "experiment": "HCC panel assay, sulforhodamine B", "format": "cell-based", "details": "NCI-H460, Lung, (−)-PLH content 24.1%", "method": "as §1"}, "[3]": {"experiment": "Solubility of phenylahistin in solvents", "format": "physicochemical"}, "[4]": {"details": "Homo sapiens, read-out: GL50 (the source's name)"}, "[5]": {"details": "Homo sapiens, read-out: LC50 (the source's name)"}},
  "data": [
    {"smiles": "C=CC(C)(C)c1[nH]cnc1/C=C1\\NC(=O)[C@H](Cc2ccccc2)NC1=O", "note": "[(−)-phenylahistin]", "values": [
      {"measurement": "polymerization of microtubule protein", "setting": "[1]; 80 μM", "result": "completely inhibited"},
      {"measurement": "turbidity increase at high concentration", "setting": "[1]; concentrations up to 200 μM", "result": "did not increase the turbidity"},
      {"measurement": "IC50", "setting": "[1]; microtubule protein 1.5 mg/ml (Table 4), read-out: IC50 for Microtubule Protein Polymerization", "result": 25000, "unit": "nM"},
      {"measurement": "IC50", "setting": "[2]; Homo sapiens, A549, read-out: 50% inhibitory concentration (IC50), proliferation of A549 cells, 48 hours", "result": 300, "unit": "nM"},
      {"measurement": "fold less potent than CLC, A549 proliferation", "setting": "[2]; versus CLC under the assay conditions", "result": 5, "unit": "fold"}
    ]},
    {"smiles": "C=CC(C)(C)c1[nH]cnc1/C=C1\\NC(=O)[C@H](Cc2ccccc2)NC1=O", "note": "(racemic) [PLH, phenylahistin]", "values": [
      {"measurement": "TGI", "setting": "BSY-1", "result": 670, "unit": "nM"},
      {"measurement": "IC50", "setting": "BSY-1; [4]", "result": 230, "unit": "nM"},
      {"measurement": "CC50", "setting": "BSY-1; [5]", "result": "> 100000", "unit": "nM"},
      {"measurement": "CC50", "setting": "OVCAR-3; Homo sapiens, OVCAR-3, read-out: LC50", "result": "> 100000", "unit": "nM"},
      {"measurement": "IC50", "setting": "OVCAR-3; Homo sapiens, OVCAR-3, Ovary, (−)-PLH content 24.1%, read-out: GL50 (the source's name)", "result": 3000, "unit": "nM"},
      {"measurement": "TGI", "setting": "OVCAR-3; OVCAR-3, Ovary, (−)-PLH content 24.1%", "result": ">100000", "unit": "nM"},
      {"measurement": "IC50", "setting": "MDA-MB-231; [4]", "result": 640, "unit": "nM"},
      {"measurement": "CC50", "setting": "MDA-MB-231; [5]", "result": "> 100000", "unit": "nM"},
      {"measurement": "TGI", "setting": "MDA-MB-231", "result": 6000, "unit": "nM"},
      {"measurement": "IC50", "setting": "MKN7; Homo sapiens, MKN-7, read-out: GL50 (the source's name)", "result": 390, "unit": "nM"},
      {"measurement": "CC50", "setting": "MKN7; Homo sapiens, MKN-7, read-out: LC50 (the source's name)", "result": "> 100000", "unit": "nM"},
      {"measurement": "TGI", "setting": "MKN7", "result": ">100000", "unit": "nM"},
      {"measurement": "TGI", "setting": "HT-29", "result": ">100000", "unit": "nM"},
      {"measurement": "IC50", "setting": "HT-29; [4]", "result": 400, "unit": "nM"},
      {"measurement": "CC50", "setting": "HT-29; [5]", "result": "> 100000", "unit": "nM"},
      {"measurement": "IC50", "setting": "SK-OV-3; [4]", "result": 370, "unit": "nM"},
      {"measurement": "CC50", "setting": "SK-OV-3; [5]", "result": "> 100000", "unit": "nM"},
      {"measurement": "TGI", "setting": "SK-OV-3", "result": ">100000", "unit": "nM"},
      {"measurement": "TGI", "setting": "A549", "result": ">100000", "unit": "nM"},
      {"measurement": "IC50", "setting": "A549; [4]", "result": 970, "unit": "nM"},
      {"measurement": "CC50", "setting": "A549; [5]", "result": "> 100000", "unit": "nM"},
      {"measurement": "IC50", "setting": "OVCAR-8; [4]", "result": 520, "unit": "nM"},
      {"measurement": "CC50", "setting": "OVCAR-8; [5]", "result": "> 100000", "unit": "nM"},
      {"measurement": "TGI", "setting": "OVCAR-8", "result": 56000, "unit": "nM"},
      {"measurement": "TGI", "setting": "HBC-5", "result": ">100000", "unit": "nM"},
      {"measurement": "IC50", "setting": "HBC-5; Homo sapiens, HBC5, read-out: GL50 (the source's name)", "result": 600, "unit": "nM"},
      {"measurement": "CC50", "setting": "HBC-5; Homo sapiens, HBC5, read-out: LC50 (the source's name)", "result": "> 100000", "unit": "nM"},
      {"measurement": "IC50", "setting": "NCI-H460; [4]", "result": 410, "unit": "nM"},
      {"measurement": "CC50", "setting": "NCI-H460; [5]", "result": "> 100000", "unit": "nM"},
      {"measurement": "TGI", "setting": "NCI-H460", "result": ">100000", "unit": "nM"},
      {"measurement": "solubility", "setting": "[3]; in ethyl acetate, chloroform, methanol, and pyridine", "result": "soluble"},
      {"measurement": "solubility", "setting": "[3]; in water, benzene, and toluene", "result": "only slightly soluble"}
    ]}
  ]
}
